Read-outs that look alike come from different tables or passages of the source.
How the values were obtained:
GP7TB cells [1] = assay: Growth inhibition (cell number), GP7TB; format: cell-based, rat; details: for Amount of Cells: GP7TB, mean of triplicate; for IC50: Rattus norvegicus, GP7TB cells, read-out: 50% inhibition concentration (IC50)
Procedure: Rat liver cancer cell line GP7TB and human liver cancer cell line Huh-7 and HepG2 at 10^4 cells each were seeded in individual wells of a 96-well cultural plate. After overnight incubation, different concentrations of the extracts were added therein for 24 hours. Subsequently, the medium was discarded, and the medium with 20 μl/ml of MTS was added for 1 hour. Since MTS reagent contains 3-(4,5-dimethylhiazol-2-yl)-5-(3-carboxymethoxyphenyl)-2-(4-sulfophenyl)-2H-tetrazolium, which could be metabolized by NADH or NADPH dehydrogenase in living cells to a formazan product, cellular survival rates could be estimated from different readings at 490 nm.
The experiments were performed in triplicate and the results were performed by average calculation.

Colon, HT-29 = assay: alamarBlue cancer cell inhibition, HT-29; format: cell-based; details: HT-29, 72 hours
Procedure: (§1) Each suspension of various cancer cell lines was inoculated in a 96-well cultural plate and incubated at 37° C. under 5% carbon dioxide for 24 hours. Then, 100 μL of medium and 2 μl of different concentrations (100, 10, 1, 0.1 and 0.01 μM) of dichotomin (PK-22-1) were added therein. In addition, the cancer cells treated with a control drug, mitomycin, were incubated and treated in the same manner. After 72 hours of incubation, 20 μl of alamarBlue reagent was added into each well and the cells were incubated for another 6 hours. Cell densities were detected with a fluorescence detector, GENios equipped with a microreader, using an exciting wavelength of 530 nm and an emission wavelength of 590 nm. The IC50 value means the concentration at which the experimental drug reduces the cell numbers by 50% at the end of the experiment. This value represents the inhibition activity of the test drugs.

Liver, Hep 3B = assay: alamarBlue cancer cell inhibition, Hep 3B; format: cell-based; details: 72 hours
Procedure: as §1

Lung, A549 = assay: alamarBlue cancer cell inhibition, A549; format: cell-based; details: A549, 72 hours
Procedure: as §1

GP7TB cells [2] = assay: In vivo growth inhibition of rat liver tumor by intratumoral injection
Procedure: The back of each rat was injected subcutaneously with 3×10^6 cells of GP7TB cells. The tumor grows up to 0.3 cm in diameter after about one week. A single dose of dichotomin (PK-22-1, 2.0 mg/kg) or the control buffer (PBS) was directly injected into the tumor once every day for 8 consecutive days. The tumor size was measured, and the cancer cell growth inhibition effects of the control group and dichotomin treated group were compared.

GP7TB cells [3] = assay: Nuclear DNA fragmentation (agarose gel electrophoresis), GP7TB; format: cell-based, rat; details: 12.5 μg/ml, 48 hours
Procedure: To understand the GP7TB cell growth inhibition mechanism of the active components and the extracts, GP7TB cells were treated with the extracts and dichotomin at a constant concentration of 12.5 μg/ml for 48 hours. The cellular DNA was extracted and analyzed with agarose gel electrophoresis. […] Therefore, it could be concluded that dichotomin could induce apoptosis of the abovementioned cell lines.

HepG2 cells = assay: Nuclear DNA fragmentation (agarose gel electrophoresis), HepG2; format: cell-based, human; details: HepG2, 12.5 μg/ml, 48 hours
GP7TB cells [4] = assay: Ex-vivo anti-tumor experiment: pretreated GP7TB cells grafted in F344 rats; parameters: species or system rat; details: GP7TB cells pretreated 12.5 μg/ml 24 hours; 5×10^6 cells S.C.; after three weeks
Procedure: GP7TB cells (3×10^6 cells each) were incubated in several 10-cm cultural dishes and treated with dichotomin (PK-22-1) or the extract without dichotomin (PK-22-3) at a concentration of 12.5 μg/ml for 24 hours. These cells were collected. GP7TB cells, PK-22-1-treated GP7TB cells, and PK-22-3-treated GP7TB cells (5×10^6 cells each) were separately injected subcutaneously at three different locations on the back of each F344 rat. […] The tumor sizes of rats inoculated with GP7TB cells treated with the extract PK-22-3 without dichotomin were the same as those of rats treated with GP7TB cells (control group).

## COc1cccc2c1C(=O)c1c(O)c3c(c(O)c1C2=O)C[C@@](O)(C(=O)CO)C[C@@H]3O[C@H]1C[C@H](N)[C@H](O)[C@H](C)O1 [Adriamycin]
GP7TB cells [1]; 1 μg/ml
  Amount of Cells: 7.80 × 10^4 cells/ml
GP7TB cells [1]; 2 μg/ml
  Amount of Cells: 2.30 × 10^4 cells/ml
GP7TB cells [1]; 4 μg/ml
  Amount of Cells: 2.00 × 10^4 cells/ml
GP7TB cells [1]; 6 μg/ml
  Amount of Cells: 3.00 × 10^4 cells/ml
GP7TB cells [1]; 8 μg/ml
  Amount of Cells: 2.50 × 10^4 cells/ml
GP7TB cells [1]; 10 μg/ml
  Amount of Cells: 2.30 × 10^4 cells/ml
GP7TB cells [1]; 12 μg/ml
  Amount of Cells: 1.60 × 10^4 cells/ml
GP7TB cells [1]; by mass
  IC50: 1.54 µg/mL
GP7TB cells [1]; molar
  IC50: 2.66 µM

## CO[C@@]12[C@H](COC(N)=O)C3=C(C(=O)C(C)=C(N)C3=O)N1C[C@@H]1N[C@@H]12 [Mitomycin, reference compound]
Colon, HT-29; Homo sapiens
  IC50: 0.33 µM
Liver, Hep 3B; Homo sapiens, Hep3B
  IC50: 0.04 µM
Lung, A549; Homo sapiens
  IC50: 0.16 µM

## (25R)-26-O-beta-D-glucopyranosyl-22-hydroxy-5-ene-furostan-3beta, 26-diol-3-O-alpha-L-rhamnopyranosyl-(1→4)-alpha-L-rhamnopyranosyl-(1→4)-[alpha-L-rhamnopyranosyl-(1→2)]-beta-D-glucopyranoside [PK-22-1]
GP7TB cells [1]; 1 μg/ml
  Amount of Cells: 1.30 × 10^5 cells/ml
GP7TB cells [1]; 2 μg/ml
  Amount of Cells: 4.60 × 10^4 cells/ml
GP7TB cells [1]; 4 μg/ml
  Amount of Cells: 2.00 × 10^4 cells/ml
GP7TB cells [1]; 6 μg/ml
  Amount of Cells: 1.10 × 10^4 cells/ml
GP7TB cells [1]; 8 μg/ml
  Amount of Cells: 5.00 × 10^4 cells/ml
GP7TB cells [1]; 10 μg/ml
  Amount of Cells: 3.00 × 10^3 cells/ml
GP7TB cells [1]; 12 μg/ml
  Amount of Cells: 1.60 × 10^3 cells/ml
GP7TB cells [2]; 2.0 mg/kg into the tumor once daily for 8 days, volume = 0.52 × length × width × height
  Tumor volume after injection (Day 8): (0.692 cm^3)
GP7TB cells [2]; 2.0 mg/kg intratumoral, 8 days
  Apoptosis of cancer cells in tumor (pathological section): exhibited apoptosis
GP7TB cells [2]; 2.0 mg/kg intratumoral, 8 days, vs PBS
  Tumor size relative to the control group: only half the size
GP7TB cells [2]; baseline, volume = 0.52 × length × width × height
  Tumor volume before injection (Day 0): (0.142 cm^3)
GP7TB cells [2]; tumor volume Day 8 vs Day 0, 2.0 mg/kg intratumoral, PBS control 9.26
  Growth (folds): 4.87 folds
GP7TB cells [3]
  Nuclear DNA fragmentation: most notable effects
HepG2 cells
  Nuclear DNA fragmentation: most notable effects
GP7TB cells [4]
  Rats that did not form any tumor: six rats of the nine
  Tumor size relative to tumors from untreated GP7TB cells (control group): one sixth
Colon, HT-29
  IC50: 7.3 µM
Liver, Hep 3B
  IC50: 8.5 µM
Lung, A549
  IC50: 0.84 µM
